Positions of bridges follow the written chain, without caps; N, C: chain ends. Residues, ends and D or L forms follow the SMILES beside them. *: point of attachment. Biotin = O=C1N[C@H]2[C@H](CS[C@H]2CCCCC(=O)*)N1
Legend:
CAT2 = experiment: Zymogram of CAT isoforms from treated seedlings; assay type: in vivo, Arabidopsis thaliana; details: 1 nM peptide, sprayed 20 min before harvesting; mean ± SD, n = 3, Student's t-test P < 0.05
Description: (§1) Enzymatic activity of CAT isozymes and total CAT activities of protein extracted from WT and atpnp-a or cat2-2 mutant lines, when indicated sprayed with 1 nM pAtPNP-A or pScr 20 min before harvesting, were determined zymographically and spectrophotometrically, as described in[56]. Relative quantification of intensity of bands corresponding to different CAT isoforms was performed with ImageJ version 1.48 (https://imagej.nih.gov/ij/). Enzymatic activity of the rCAT2 in the presence of absence of 100 nM rAtPNP-A, pAtPNP-A or pScr were determined with the use of Amplex Red catalase assay kit (Invitrogen) according to the manufacturer’s instructions.
(§2) Figure 3 AtPNP-A directly interacts with CAT2 to modulate its enzymatic activity in vitro. (a) Zymogram depicting changes in the enzymatic activity of CAT isoforms extracted from wild type (WT) or cat2-2 knockout mutant seedlings in response to 1 nM pAtPNP-A or pScr. Densitometric semi-quantification of bands corresponding to CAT2, normalized to the loading control (dark-coloured band on zymogram) for WT samples treated with 1 nM pAtPNP-A or pScr (mean ± SD, Student’s t-test, n = 3, P < 0.05). […] (b) Total CAT activity in protein extracted from WT seedlings assayed with Amplex Red catalase assay kit in the presence of 1 nM pAtPNP-A, rAtPNP-A, or pScr. […] (c) Enzymatic activity of rCAT2 in the presence of 100 nM pAtPNP-A, rAtPNP-A, or pScr.

rCAT2 [1] = experiment: Enzymatic activity of rCAT2, Amplex Red catalase assay; assay type: biochemical, Arabidopsis thaliana; details: 100 nM, Amplex Red catalase assay kit; three independent experiments, P < 0.01
Description: as §1, §2

[2] = test system: A. thaliana (Col-0) mesophyll cell protoplasts; experiment: Mesophyll cell protoplast swelling (volume); assay type: cell-based, Arabidopsis thaliana; details: 100 nM peptide or 1 μg mL^−1 rAtPNP-A, 0.4 M mannitol, 20 min, room temperature, n = 50, P < 0.0001
Excerpt: Peptides containing amino acid sequence of the active region of AtPNP-A and corresponding scrambled peptides, having the same amino acid composition but in a randomized order (Fig. 1a), with or without C-terminal biotin tag, were synthesized by GenScript (Piscataway, USA) at the purity level > 95% verified with HPLC and their biological activity was verified as described previously.
Figure 1 Biologically active peptide containing the active region of AtPNP-A protein binds to CAT2. (a) Domain organization of AtPNP-A and the amino acid sequences of C-terminally biotinylated peptides used in affinity chromatography-based experiments—a peptide containing the active site of AtPNP-A (indicated as pAtPNP-A) or the corresponding scrambled peptide (indicated as pScr). Cysteine residues forming a disulfide bond, characteristic to natriuretic peptide (NP)-like molecules, are underlined. SP, signal peptide. (b) Assaying biological activity of the AtPNP-A peptide (pAtPNP-A) and purified recombinant protein (rAtPNP-A). […] In each treatment, 50 randomly selected protoplasts with diameter > 20 µm were included in quantitative analysis (scale bar = 20 µm). Protoplast volume was measured and the data obtained from an exemplar experiment are plotted. […]

[3] = test system: mitogen-activated protein kinase (MAPK) pathway; experiment: MAPK pathway activation; details: data not shown
rCAT2 [4] = experiment: SPR of CAT2 and AtPNP-A recombinant proteins, CM5 chip, both configurations; assay type: binding, Arabidopsis thaliana; details: amine coupling, 20 °C
Description: N-terminally 6xHis-tagged AtPNP-A and CAT2 proteins were expressed in BL21 (DE3) One Shot E. coli cells (Life Technologies), purified by affinity chromatography with Ni–NTA beads (Qiagen) and HisTrap HP column (GE Healthcare Lifesciences) as described in[21]. The purity of preparations was verified on 12.5% SDS-PAGE, stained with Coomassie Brilliant Blue (Bio-Rad). Protein identities were confirmed in MS analysis, and protein concentration was determined according to the method of Bradford using BSA as a standard.
SPR experiments were performed at 20 °C on Biacore T100 instrument operated using Biacore T100 control software (version 2.0.2, GE Healthcare Lifesciences) using Series S CM5 or NTA sensor chips as described in[21]. Kinetic analyses were performed at the flow of 100 μL min^−1 with pAtPNP-A (at 3.78 μM and consecutive twofold dilutions; 11 injections included) employed as a ligand and bovine liver CAT (C-40; Sigma) used as an analyte and immobilized on the active surface of the Series S CM5 sensor chip with amine coupling kit, while the surface regeneration was done with solution of glycine, pH 2.0, and the final sensorgram was generated with Scrubber (BioLogic Software Pty Ltd).
Supplementary Figure S3. In vitro association of AtPNP-A and CAT2 recombinant proteins.
(a) Recombinant protein preparations used in SPR analyses. […]

[5] = test system: receptor perceiving AtPNP-A; details: cited from earlier work
Excerpt: Similarly, identification of novel receptors targeted by an increasing number of peptidic plant hormones discovered in the last few decades[8],[9] is anticipated. One of those, the plant natriuretic peptides (PNPs), are a group of systemically mobile signals[10] that have a role in the maintenance of salt and water balance[11],[12]. An A. thaliana PNP, termed AtPNP-A (At2g18660; Q9ZV52), has been implicated in several physiological processes ranging from the regulation of stomatal aperture, osmoticum-dependent volume changes[13],[14] and modulation of developmental stage- and tissue-specif ...

Compound | CAT2 activity in WT plants (zymogram) (CAT2) | In vitro enzymatic activity of rCAT2 (rCAT2 [1]) | Protoplast swelling response (volume) [2] | Activation of MAPK pathway [3] | SPR binding of recombinant AtPNP-A to CAT2 (rCAT2 [4]) | Generation of cGMP by receptor upon AtPNP-A binding [5]
CC(C)C[C@@H]1NC(=O)[C@H](CC(N)=O)NC(=O)[C@H](CC(N)=O)NC(=O)[C@H](CCCCN)NC(=O)[C@H](C(C)C)NC(=O)CNC(=O)[C@H](C(C)C)NC(=O)[C@H](C(C)C)NC(=O)[C@H](CC(C)C)NC(=O)[C@H]([C@@H](C)O)NC(=O)[C@H](CCC(=O)O)NC(=O)[C@H](CCCNC(=N)N)NC(=O)[C@H](CCC(N)=O)NC(=O)[C@H]([C@@H](C)O)NC(=O)CNC(=O)[C@H](Cc2ccc(O)cc2)NC(=O)[C@@H](NC(=O)[C@H](C)NC(=O)[C@H](CO)NC(=O)[C@H](CCCNC(=N)N)NC(=O)[C@@H](NC(=O)[C@H](Cc2ccc(O)cc2)NC(=O)[C@@H]2CCCN2)[C@@H](C)O)CSSC[C@@H](C(=O)NCC(=O)N[C@@H](CCCNC(=N)N)C(=O)N[C@@H](CCCNC(=N)N)C(=O)N[C@@H](Cc2ccc(O)cc2)C(=O)N[C@@H](CCCNC(=N)N)C(=O)N[C@H](C(=O)N[C@@H](CCCNC(=N)N)C(=O)N[C@@H](CCCCNC(=O)CCCC[C@@H]2SC[C@@H]3NC(=O)N[C@@H]32)C(=O)O)C(C)C)NC(=O)[C@H](C)NC(=O)[C@H](CCCNC(=N)N)NC(=O)CNC(=O)[C@H](CC(N)=O)NC(=O)[C@H](CCC(N)=O)NC(=O)[C@H](Cc2c[nH]c3ccccc23)NC1=O [pAtPNP-A] (H-PYTRSACYGTQRETLVVGVKNNLWQNGRACGRRYRVRK(Biotin)-OH; disulfide 7-30; N-terminus and C-terminus assumed) | increased CAT2 activity in WT plants compared to the mutants | significantly enhanced | significantly greater than the response elicited by the scrambled peptide (pScr) | does not activate mitogen-activated protein kinase (MAPK) pathway |  | 
AtPNP-A: An A. thaliana PNP, termed AtPNP-A (At2g18660; Q9ZV52) |  |  |  |  | specific AtPNP-A and CAT2 interaction in vitro | catalyzes generation of cGMP upon binding of AtPNP-A

Reference: PMC7665192, “A natriuretic peptide from Arabidopsis thaliana (AtPNP-A) can modulate catalase 2 activity” (Scientific Reports, 2020)
